According to ChEMBL document CHEMBL6177967, “Semisynthesis and biological evaluation of 17-hydroxybrevianamide N derivatives as anti-inflammatory agents by mediating NF-κB and MAPK signaling pathways” (Eur J Med Chem, 2025):
The source made the active and inactive calls. The calls are words filed in the database; no cut-off is given here.

Legend:
RAW264.7 [1] = assay: Anti-inflammatory activity in LPS-induced mouse RAW264.7 cells assessed as inhibition of IL-6 level at 20 uM incubated for 24 hrs by ELISA relative to control; format: functional
RAW264.7 [2] = assay: Anti-inflammatory activity in LPS-induced mouse RAW264.7 cells assessed as inhibition of NO levels incubated for 24 hrs; format: functional, cell-based; details: RAW264.7, 24 h
RAW264.7 [3] = assay: Anti-inflammatory activity in LPS-induced mouse RAW264.7 cells assessed as inhibition of IL-1beta level at 20 uM incubated for 24 hrs by ELISA relative to control; format: functional
RAW264.7 [4] = assay: Anti-inflammatory activity in LPS-induced mouse RAW264.7 cells assessed as inhibition of TNF-alpha level at 20 uM incubated for 24 hrs by ELISA relative to control; format: functional
RAW264.7 [5] = assay: Inhibition of MAPK signaling pathway in LPS-induced mouse RAW264.7 cells assessed as reduction in phosphorylated p38 level at 10 uM incubated for 24 hrs by Western blot analysis; format: cell-based
RAW264.7 [6] = assay: Inhibition of NFkappaB pathway activation in LPS-induced mouse RAW264.7 cells assessed as reduction in phosphorylated IKBalpha level at 10 uM incubated for 24 hrs by Western blot analysis relative to control; format: cell-based
[7] = Downregulation of MAPK protein expression in LPS-induced mouse RAW264.7 cells at 0.2 uM incubated for 24 hrs by Western blot analysis relative to control; format: functional
RAW264.7 [8] = assay: Cytotoxicity against mouse RAW264.7 cells assessed as inhibition of cell growth at 2 uM incubated for 24 hrs by MTT assay; format: toxicity, cell-based; details: raw264.7, 24 h
RAW264.7 [9] = assay: Inhibition of NFkappaB pathway activation in LPS-induced mouse RAW264.7 cells assessed as inhibition of p65 phosphorylation at 0.2 uM incubated for 24 hrs by Western blot analysis; format: cell-based
RAW264.7 [10] = assay: Anti-inflammatory activity in LPS-induced mouse RAW264.7 cells assessed as inhibition of TNF-alpha level at 2 uM incubated for 24 hrs by ELISA relative to control; format: functional
RAW264.7 [11] = assay: Inhibition of MAPK signaling pathway in LPS-induced mouse RAW264.7 cells assessed as reduction in phosphorylated SAPK/JNK level at 10 uM incubated for 24 hrs by Western blot analysis; format: cell-based
RAW264.7 [12] = assay: Inhibition of MAPK signaling pathway in LPS-induced mouse RAW264.7 cells assessed as reduction in p38 phosphorylation at 0.2 uM incubated for 24 hrs by Western blot analysis; format: cell-based
RAW264.7 [13] = assay: Anti-inflammatory activity in LPS-induced mouse RAW264.7 cells assessed as inhibition of IL-6 level at 2 uM incubated for 24 hrs by ELISA relative to control; format: functional
RAW264.7 [14] = assay: Inhibition of NFkappaB pathway activation in LPS-induced mouse RAW264.7 cells assessed as reduction in phosphorylated p65 level at 0.2 to 10 uM incubated for 24 hrs by Western blot analysis relative to control; format: cell-based; details: dose 0.2-10 µM
RAW264.7 [15] = assay: Anti-inflammatory activity in LPS-induced mouse RAW264.7 cells assessed as inhibition of IL-1beta level at 2 uM incubated for 24 hrs by ELISA relative to control; format: functional
RAW264.7 [16] = assay: Inhibition of MAPK signaling pathway in LPS-induced mouse RAW264.7 cells assessed as reduction in ERK phosphorylation at 0.2 uM incubated for 24 hrs by Western blot analysis; format: cell-based
RAW264.7 [17] = assay: Inhibition of NFkappaB pathway activation in LPS-induced mouse RAW264.7 cells assessed as inhibition of IKBalpha phosphorylation at 10 uM incubated for 24 hrs by Western blot analysis; format: cell-based
RAW264.7 [18] = assay: Inhibition of MAPK signaling pathway in LPS-induced mouse RAW264.7 cells assessed as reduction in SAPK/JNK phosphorylation at 0.2 uM incubated for 24 hrs by Western blot analysis; format: cell-based

IC50 (RAW264.7 [2]) [µM]	SMILES	inhibition at 20 µM (RAW264.7 [1]) [%]	inhibition at 20 µM (RAW264.7 [3]) [%]	inhibition at 20 µM (RAW264.7 [4]) [%]	inhibition (RAW264.7 [5])	inhibition (RAW264.7 [6]) [%]	Activity [7] [%]	Activity (RAW264.7 [8])	inhibition (RAW264.7 [9])	inhibition at 2 µM (RAW264.7 [10]) [%]	inhibition (RAW264.7 [11])	inhibition (RAW264.7 [12])	inhibition at 2 µM (RAW264.7 [13]) [%]	inhibition (RAW264.7 [14]) [%]	inhibition at 2 µM (RAW264.7 [15]) [%]	inhibition (RAW264.7 [16])	inhibition (RAW264.7 [17])	inhibition (RAW264.7 [18])
20	CNC(=N)NCCC[C@H](N)C(=O)O [TILARGININE]	27.6	61.9	19.4														
0.5	C=CCOc1ccccc1C[C@H]1C(=O)N(C)C(=O)c2nc3ccccc3c(=O)n21				Active; Reduction In Cellular P-P38 Level Was Almost Close To Untreated Control	59	>30	Non-toxic	Active	25.6	Active; Reduction In Cellular P-Sapk/Jnk Level Was Almost Close To Untreated Control	Active	54.5	50	92.9	Active	Active	Active
